The values that follow come from patent US10526371B2, “Hydrogel-forming peptides” (Universiteit Gent, priority 2015, dated 2020).

The nature of data set [1]: Peptide self-assembly / gelation conditions. The class given is physicochemical. The settings on record: TFA salt. How it is done: Peptide self-assembly was analyzed in i) a PBS solution (10 mM), ii) a PBS/mQ mixture (1:1 v:v, mQ water with a resistivity of […]) or iii) a NaCl aqueous solution (150 mM). The TFA salt of reference peptide SEQ NO. 23 (1 mg) was dissolved in 50 μl mQ water, followed by the addition of 50 μl PBS solution. This mixture was left to rest overnight, resulting in a 1% w/v hydrogel. The TFA salt of mixed α/β-peptides SEQ ID NO 1 and SEQ ID NO 2 (2 mg) was dissolved in mQ (100 μL) and PBS/mQ mixture (100 μL), respectively. […] The TFA salt of mixed α/β-peptide SEQ ID NO 3 (3 mg) was dissolved in PBS (100 μL) to probe gelation. All self-assembled gels were analyzed by circular dichroism (CD) and Fourier transform infrared (FT-IR) spectroscopy, as well as cryogenic transmission electron microscopy (Cryo-TEM).
(SEQ ID NO:22 (=10-mer)), 100 μl mQ water was added to 2 mg of TFA-salt of pure peptide, then vortexed and sonicated. As a result, a transparent self-supporting gel was formed immediately. A gelation condition of 2 w/v % in mQ water was found.
for H-Fβ^2hFEFQFK-NH2 (SEQ ID NO:19), 100 μl of PBS was added to 2 mg of TFA-salt of pure peptide, then vortexed and sonicated. After overnight resting, a self-supporting gel was formed. A gelation condition of 2 w/v % in PBS was determined.

Data set [2] relates to elastase. The data set is described as follows: Enzymatic degradation study of peptides in non-gelating conditions. The class given is in vitro ADME. The settings on record: peptide 350 μM, elastase 60 μM, 37° C. Here is the method: The following biodegradation experiments were performed in order to assess biostability of peptides of the invention toward elastase, a prominent enzyme present in the subcutaneous compartment.
The following buffer was used to assay the proteolytic stability of the peptides towards elastase: 10 mM PBS at pH 7.2. First, a stock solution of elastase (60 μM in 10 mM PBS) was prepared. Peptides SEQ ID NO 1, 2 and 3 and reference α-peptide SEQ ID NO 23 were subjected to the degradation study and prepared as a stock solution of 350 μM in mQ water (with a resistivity of […]). Enzymatic degradation was carried out by incubation of peptide (900 μL, 350 μM) with the enzyme (150 μL, 60 μM) at 37° C. for 7 days. To preclude any pH-dependent effects on the enzyme's activity, the pH value was kept at pH 6.9±0.5 in all degradation experiments.
The enzyme concentration was selected such that the reference α-peptide SEQ ID NO 23 was completely degraded in less than 1 hour. In case of the α-peptide SEQ ID NO 23, aliquots (70 μL) were periodically taken at 0 min, 5 min, 10 min, 15 min, 20 min and 30 min, while for the mixed α/β-peptides aliquots (70 μL) were taken at 0 min, 20 min, 30 min, 1 h, 2 h, 5 h, 1 day, 2 days, 3 days, 4 days, 5 days and 6 days. 5 μL of 25% AcOH in water (v/v) were added and the degradation was monitored by HPLC analysis. After just 30 min of exposure to elastase, the reference α-peptide SEQ ID NO 23 was completely degraded. The enzymatic degradation of mixed α/β-peptides SEQ ID NO 1, SEQ ID NO 2 and SEQ ID NO 3 was remarkably slower and lasted several days. Mixed α/β-peptides SEQ ID NO 1 and SEQ ID NO 2 were completely consumed after 6 days whilst mixed α/β-peptide SEQ ID NO 1, SEQ ID NO 3 was degraded after 3 days.

Data set [3] relates to elastase. The data set is described as follows: Proteolytic stability of hydrogels (elastase solution on top of hydrogel). In kind it is in vitro ADME. The settings on record: hydrogel, elastase 60 μM in 10 mM PBS on top. How it is done: (B) The proteolytic stability of the hydrogels was analyzed by placing an elastase solution (60 μM in 10 mM PBS) on top of the hydrogel. In all the stability experiments a total volume of 4 mL (gel+PBS solution with and without enzyme) was obtained. The addition of the enzyme solution on top of the hydrogel was set as the starting point of the gel-degradation experiments; B. At specific time-intervals (0 h, 24 h, 2 days, 3 days, 4 days, 5 days, 6 days, 7 days, 2 weeks, 3 weeks, etc.) the liquid portion on top of the hydrogel was removed using a pipette and the hydrogel's volume was estimated using following formula: VTotal−VLiquid portion=VHydrogel (1)
wherein VTotal is the total volume and remains at 4 mL and VLiquid portion is the volume measured of the liquid portion after each sampling interval. At each sampling interval the pH was also measured; C. A picture of the inverted glass tube, only containing the self-sustaining non-fluid-like hydrogel, was taken in order to assess the physical deformation of the hydrogel and volume-loss; D. The PBS, mQ or enzyme solution is gently replaced on top of the hydrogel using a pipette, allowing repetition of steps A-D. Between sampling-intervals the glass tubes were kept undisturbed at room temperature. The gel degradation time was defined as the period required for complete disintegration of the hydrogels into liquid under observation of the naked eye.
(C) In a next step, the stability and degradation profiles of the mixed α/β-hydrogels were investigated using this methodology. During the first hours after addition of the elastase to peptide SEQ ID NO 1 hydrogel, no apparent physical deformation was observed. The collected liquid portion (on top of the hydrogel) measured 3 mL (during the first 10 hours). […] In comparison to the α-peptide 1 hydrogel the degradation time of peptide SEQ ID NO 1 hydrogel was extended from 3.5 days to 5.5 days. However, the physical alteration of this hydrogel into an opaque structure was already observed after one day.

Data set [4] is described as follows: Erosion / general stability of hydrogel without enzyme (PBS on top). The class given is physicochemical. How it is done: (A). The peptide hydrogel (1 mL) was prepared in a 10 mL glass tube using the appropriate gelation conditions (see peptide self-assembly in example 2). After leaving the hydrogel to rest overnight the degradation evaluation was started. First, general stability (without the incubation of an enzyme) was evaluated for α-peptide SEQ ID NO 23: 3 mL of mQ water was gently placed on top of the hydrogel and erosion experiments were performed by placing 3 mL PBS solution (10 mM) on top of the hydrogel to assess the hydrogels macroscopic decay in time. […] After 24 hours there was a small loss in volume (0.1 mL) of the formed hydrogel and the aggregation remained visible at the hydrogel surface. The PBS fraction was recollected and measured as 3.1 mL, in agreement with the 0.1 mL volume loss of the hydrogel. After 4 days the hydrogel was completely disintegrated into opaque aggregated pieces sticking to the bottom of the glass tube. The collected solution was measured to be 3.8 mL.

The mark [5] stands for this setting: 3 mL PBS on top, after 24 hours.

Take “H-FEFQFK-OH [SEQ ID NO 23, H-FEFQFK-OH, reference compound]”: the hydrogel concentration obtained in data set [1] (50 μl mQ water + 50 μl PBS, rest overnight) was 1 % w/v. Besides, the “time of gelation (self-supporting gel formed)” value in data set [1] (at its own gelation condition) is listed as “overnight”. Also, the “time to complete degradation by elastase” value in data set [2] (HPLC) was found to be 30 min. In data set [2] (enzyme concentration selected for this), the “time to complete degradation by elastase” value is recorded as “less than 1 hour”. Moreover, the “time at which hydrogel changed into an opaque structure” value in data set [3] is 2 days. Moreover, the “gel degradation time (hydrogel unstable/fluid-like)” value in data set [3] (room temperature) is given as 3.5 days. This substance also registered a hydrogel volume in data set [4] (1 mL hydrogel, 3 mL PBS 10 mM on top, after 2 hours) of 1 mL. Also, in data set [4] (setting [5]), the PBS fraction recollected is 3.1 mL and the “loss in volume of hydrogel” value is on record as 0.1 mL. In data set [4] (3 mL PBS on top, after 4 days), this substance showed a collected solution of 3.8 mL. Moreover, in data set [4] (3 mL PBS on top, no enzyme), the “time to complete disintegration of hydrogel” value turned out to be 4 days.
